Reference: patent US12091411B2, “IRAK degraders and uses thereof” (Kymera Therapeutics, Inc., priority 2022, dated 2024)
Read-outs that look alike come from different tables or passages of the source.

Molecular target: T1, IRAK4 (Homo sapiens, UniProt Q9NWZ3)
T1 construct: Degradation of IRAK4 in OCI-LY10 was quantitatively measured using Meso Scale Discovery technology; endogenous in cells; host or cells: OCI-LY10
T1 sequence (Q9NWZ3 1-460): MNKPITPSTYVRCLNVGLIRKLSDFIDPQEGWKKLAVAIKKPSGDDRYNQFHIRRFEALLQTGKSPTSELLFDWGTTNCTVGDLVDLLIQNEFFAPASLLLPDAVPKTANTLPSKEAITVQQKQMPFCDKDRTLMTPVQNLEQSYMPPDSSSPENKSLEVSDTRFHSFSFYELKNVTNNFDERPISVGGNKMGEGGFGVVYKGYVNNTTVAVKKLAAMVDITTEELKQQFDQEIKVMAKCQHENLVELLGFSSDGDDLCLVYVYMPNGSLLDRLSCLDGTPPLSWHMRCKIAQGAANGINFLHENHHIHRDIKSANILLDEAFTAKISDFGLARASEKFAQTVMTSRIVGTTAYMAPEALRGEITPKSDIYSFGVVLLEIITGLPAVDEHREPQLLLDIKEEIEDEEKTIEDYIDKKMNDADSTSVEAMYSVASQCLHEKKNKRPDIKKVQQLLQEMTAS
Experiment: IRAK4 MSD Degradation in OCI-LY10
Assay type: cell-based
Conditions: OCI-LY10 cells, MSD
Procedure, shortened: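 DC50, from a three-parameter logistic fit and reported as letter bins A (<0.01 μM), B, C, D (>0.2 μM or not tested), reflects IRAK4 loss measured by MSD electrochemiluminescence in OCI-LY10 lysates. Treatment: 8 doses, 1:3 steps, top 1 to 10 μM, 4 to 24 h, 37 °C.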

[1] = 4 hrs incubation, read-out: IRAK4 degradation in OCI-LY10 at 4 hrs: DC50
[2] = 24 hrs incubation, read-out: IRAK4 degradation in OCI-LY10 at 24 hrs: DC50

Compound | DC50 [1] [nM] | DC50 [2] [nM]
Cn1c(=O)n(C2CCC(=O)NC2=O)c2cccc([C@H]3CCN(C[C@H]4CC[C@H](n5cc6cc(NC(=O)c7cccc(C#N)n7)ccc6n5)CC4)C[C@@H]3F)c21 (some centres unmarked) [I-626] | > 200 | > 200
Cn1c(=O)n(C2CCC(=O)NC2=O)c2cccc([C@H]3CCN(C[C@H]4CC[C@H](n5cc6cc(NC(=O)c7cccc(C#N)n7)ccc6n5)CC4)C[C@H]3F)c21 (some centres unmarked) [I-627] | > 200 | > 200
Cn1c(=O)n(C2CCC(=O)NC2=O)c2cccc([C@@H]3CCN(C[C@H]4CC[C@H](n5cc6cc(NC(=O)c7cccc(C(F)F)n7)ccc6n5)CC4)C[C@@H]3F)c21 (some centres unmarked) [I-628] | > 200 | > 200
Cn1c(=O)n(C2CCC(=O)NC2=O)c2cccc([C@@H]3CCN(C[C@H]4CC[C@H](n5cc6cc(NC(=O)c7cccc(C(F)F)n7)ccc6n5)CC4)C[C@H]3F)c21 (some centres unmarked) [I-629] | > 200 | < 10
Cn1c(=O)n(C2CCC(=O)NC2=O)c2cccc([C@H]3CCN(C[C@H]4CC[C@H](n5cc6cc(NC(=O)c7cccc(C(F)F)n7)ccc6n5)CC4)C[C@@H]3F)c21 (some centres unmarked) [I-630] | > 200 | > 200
Cn1c(=O)n(C2CCC(=O)NC2=O)c2cccc([C@H]3CCN(C[C@H]4CC[C@H](n5cc6cc(NC(=O)c7cccc(C(F)F)n7)ccc6n5)CC4)C[C@H]3F)c21 (some centres unmarked) [I-631] | > 200 | > 200
Cc1cccc(C(=O)Nc2cc3cn([C@H]4CC[C@H](CN5CC[C@@H](c6cccc7c6n(C)c(=O)n7C6CCC(=O)NC6=O)[C@@H](F)C5)CC4)nc3cn2)n1 (some centres unmarked) [I-632] | > 200 | > 200
Cc1cccc(C(=O)Nc2cc3cn([C@H]4CC[C@H](CN5CC[C@@H](c6cccc7c6n(C)c(=O)n7C6CCC(=O)NC6=O)[C@H](F)C5)CC4)nc3cn2)n1 (some centres unmarked) [I-633] | > 200 | < 10
Cc1cccc(C(=O)Nc2cc3cn([C@H]4CC[C@H](CN5CC[C@H](c6cccc7c6n(C)c(=O)n7C6CCC(=O)NC6=O)[C@@H](F)C5)CC4)nc3cn2)n1 (some centres unmarked) [I-634] | > 200 | > 200
Cc1cccc(C(=O)Nc2cc3cn([C@H]4CC[C@H](CN5CC[C@H](c6cccc7c6n(C)c(=O)n7C6CCC(=O)NC6=O)[C@H](F)C5)CC4)nc3cn2)n1 (some centres unmarked) [I-635] | > 200 | > 200
Cn1c(=O)n(C2CCC(=O)NC2=O)c2cccc([C@@H]3CCN(C[C@H]4CC[C@H](n5cc6cc(NC(=O)c7cccc(C#N)n7)ncc6n5)CC4)C[C@@H]3F)c21 (some centres unmarked) [I-636] | > 200 | > 200
Cn1c(=O)n(C2CCC(=O)NC2=O)c2cccc([C@@H]3CCN(C[C@H]4CC[C@H](n5cc6cc(NC(=O)c7cccc(C#N)n7)ncc6n5)CC4)C[C@H]3F)c21 (some centres unmarked) [I-637] | > 200 | < 10
Cn1c(=O)n(C2CCC(=O)NC2=O)c2cccc([C@H]3CCN(C[C@H]4CC[C@H](n5cc6cc(NC(=O)c7cccc(C#N)n7)ncc6n5)CC4)C[C@@H]3F)c21 (some centres unmarked) [I-638] | > 200 | < 10
Cn1c(=O)n(C2CCC(=O)NC2=O)c2cccc([C@H]3CCN(C[C@H]4CC[C@H](n5cc6cc(NC(=O)c7cccc(C#N)n7)ncc6n5)CC4)C[C@H]3F)c21 (some centres unmarked) [I-639] | > 200 | > 200
Cn1c(=O)n(C2CCC(=O)NC2=O)c2cccc([C@@H]3CCN(C[C@H]4CC[C@H](n5cc6cc(NC(=O)c7cccc(C(F)F)n7)ncc6n5)CC4)C[C@@H]3F)c21 (some centres unmarked) [I-640] | > 200 | > 200
Cn1c(=O)n(C2CCC(=O)NC2=O)c2cccc([C@@H]3CCN(C[C@H]4CC[C@H](n5cc6cc(NC(=O)c7cccc(C(F)F)n7)ncc6n5)CC4)C[C@H]3F)c21 (some centres unmarked) [I-641] | > 200 | < 10
Cn1c(=O)n(C2CCC(=O)NC2=O)c2cccc([C@H]3CCN(C[C@H]4CC[C@H](n5cc6cc(NC(=O)c7cccc(C(F)F)n7)ncc6n5)CC4)C[C@@H]3F)c21 (some centres unmarked) [I-642] | > 200 | > 200
Cn1c(=O)n(C2CCC(=O)NC2=O)c2cccc([C@H]3CCN(C[C@H]4CC[C@H](n5cc6cc(NC(=O)c7cccc(C(F)F)n7)ncc6n5)CC4)C[C@H]3F)c21 (some centres unmarked) [I-643] | > 200 | > 200
Cc1cccc(C(=O)Nc2cc3cn([C@H]4CC[C@H](CN5CC[C@@H](c6cccc7c6n(C)c(=O)n7C6CCC(=O)NC6=O)[C@@H](F)C5)CC4)nc3cc2C(C)(C)O)n1 (some centres unmarked) [I-644] | > 200 | > 200
Cc1cccc(C(=O)Nc2cc3cn([C@H]4CC[C@H](CN5CC[C@@H](c6cccc7c6n(C)c(=O)n7C6CCC(=O)NC6=O)[C@H](F)C5)CC4)nc3cc2C(C)(C)O)n1 (some centres unmarked) [I-645] | > 200 | < 10
Cc1cccc(C(=O)Nc2cc3cn([C@H]4CC[C@H](CN5CC[C@H](c6cccc7c6n(C)c(=O)n7C6CCC(=O)NC6=O)[C@@H](F)C5)CC4)nc3cc2C(C)(C)O)n1 (some centres unmarked) [I-646] | > 200 | > 200
Cc1cccc(C(=O)Nc2cc3cn([C@H]4CC[C@H](CN5CC[C@H](c6cccc7c6n(C)c(=O)n7C6CCC(=O)NC6=O)[C@H](F)C5)CC4)nc3cc2C(C)(C)O)n1 (some centres unmarked) [I-647] | > 200 | > 200
Cn1c(=O)n(C2CCC(=O)NC2=O)c2cccc([C@@H]3CCN(C[C@H]4CC[C@H](n5cc6cc(NC(=O)c7cccc(C#N)n7)c(C(C)(C)O)cc6n5)CC4)C[C@@H]3F)c21 (some centres unmarked) [I-648] | > 200 | > 200
Cn1c(=O)n(C2CCC(=O)NC2=O)c2cccc([C@@H]3CCN(C[C@H]4CC[C@H](n5cc6cc(NC(=O)c7cccc(C#N)n7)c(C(C)(C)O)cc6n5)CC4)C[C@H]3F)c21 (some centres unmarked) [I-649] | > 200 | < 10
Cn1c(=O)n(C2CCC(=O)NC2=O)c2cccc([C@H]3CCN(C[C@H]4CC[C@H](n5cc6cc(NC(=O)c7cccc(C#N)n7)c(C(C)(C)O)cc6n5)CC4)C[C@@H]3F)c21 (some centres unmarked) [I-650] | > 200 | > 200

Results, then the compound that gave them:

DC50 [1] [nM] | DC50 [2] [nM] | Compound
> 200 | > 200 | Cc1cccc(C(=O)Nc2ccc3nn([C@H]4CC[C@H](CN5CCC(c6cccc7c6n(C)c(=O)n7C6CCC(=O)NC6=O)C(F)(F)C5)CC4)cc3c2)n1 (some centres unmarked) [I-611]
> 200 | > 200 | Cn1c(=O)n(C2CCC(=O)NC2=O)c2cccc(C3CCN(C[C@H]4CC[C@H](n5cc6cc(NC(=O)c7cccc(C#N)n7)ccc6n5)CC4)CC3(F)F)c21 (some centres unmarked) [I-612]
> 200 | < 10 | Cn1c(=O)n(C2CCC(=O)NC2=O)c2cccc(C3CCN(C[C@H]4CC[C@H](n5cc6cc(NC(=O)c7cccc(C(F)F)n7)ccc6n5)CC4)CC3(F)F)c21 (some centres unmarked) [I-613]
> 200 | < 10 | Cc1cccc(C(=O)Nc2cc3cn([C@H]4CC[C@H](CN5CCC(c6cccc7c6n(C)c(=O)n7C6CCC(=O)NC6=O)C(F)(F)C5)CC4)nc3cn2)n1 (some centres unmarked) [I-614]
> 200 | < 10 | Cn1c(=O)n(C2CCC(=O)NC2=O)c2cccc(C3CCN(C[C@H]4CC[C@H](n5cc6cc(NC(=O)c7cccc(C#N)n7)ncc6n5)CC4)CC3(F)F)c21 (some centres unmarked) [I-615]
> 200 | < 10 | Cn1c(=O)n(C2CCC(=O)NC2=O)c2cccc(C3CCN(C[C@H]4CC[C@H](n5cc6cc(NC(=O)c7cccc(C(F)F)n7)ncc6n5)CC4)CC3(F)F)c21 (some centres unmarked) [I-616]
> 200 | < 10 | Cc1cccc(C(=O)Nc2cc3cn([C@H]4CC[C@H](CN5CCC(c6cccc7c6n(C)c(=O)n7C6CCC(=O)NC6=O)C(F)(F)C5)CC4)nc3cc2C(C)(C)O)n1 (some centres unmarked) [I-617]
> 200 | < 10 | Cn1c(=O)n(C2CCC(=O)NC2=O)c2cccc(C3CCN(C[C@H]4CC[C@H](n5cc6cc(NC(=O)c7cccc(C#N)n7)c(C(C)(C)O)cc6n5)CC4)CC3(F)F)c21 (some centres unmarked) [I-618]
> 200 | < 10 | Cn1c(=O)n(C2CCC(=O)NC2=O)c2cccc(C3CCN(C[C@H]4CC[C@H](n5cc6cc(NC(=O)c7cccc(C(F)F)n7)c(C(C)(C)O)cc6n5)CC4)CC3(F)F)c21 (some centres unmarked) [I-619]
> 200 | > 200 | Cc1cccc(C(=O)Nc2ccc3nn([C@H]4CC[C@H](CN5CC[C@@H](c6cccc7c6n(C)c(=O)n7C6CCC(=O)NC6=O)[C@@H](F)C5)CC4)cc3c2)n1 (some centres unmarked) [I-620]
> 200 | > 200 | Cc1cccc(C(=O)Nc2ccc3nn([C@H]4CC[C@H](CN5CC[C@@H](c6cccc7c6n(C)c(=O)n7C6CCC(=O)NC6=O)[C@H](F)C5)CC4)cc3c2)n1 (some centres unmarked) [I-621]
> 200 | > 200 | Cc1cccc(C(=O)Nc2ccc3nn([C@H]4CC[C@H](CN5CC[C@H](c6cccc7c6n(C)c(=O)n7C6CCC(=O)NC6=O)[C@@H](F)C5)CC4)cc3c2)n1 (some centres unmarked) [I-622]
> 200 | > 200 | Cc1cccc(C(=O)Nc2ccc3nn([C@H]4CC[C@H](CN5CC[C@H](c6cccc7c6n(C)c(=O)n7C6CCC(=O)NC6=O)[C@H](F)C5)CC4)cc3c2)n1 (some centres unmarked) [I-623]
> 200 | > 200 | Cn1c(=O)n(C2CCC(=O)NC2=O)c2cccc([C@@H]3CCN(C[C@H]4CC[C@H](n5cc6cc(NC(=O)c7cccc(C#N)n7)ccc6n5)CC4)C[C@@H]3F)c21 (some centres unmarked) [I-624]
> 200 | < 10 | Cn1c(=O)n(C2CCC(=O)NC2=O)c2cccc([C@@H]3CCN(C[C@H]4CC[C@H](n5cc6cc(NC(=O)c7cccc(C#N)n7)ccc6n5)CC4)C[C@H]3F)c21 (some centres unmarked) [I-625]
